# Assay results from patent publication US20260315609A1, “MIXED VASOPRESSIN RECEPTOR AGONIST-ANTAGONIST FOR TREATING END-STAGE LIVER DISEASE AND COMPLICATIONS ASSOCIATED THEREOF” (FERRING B.V., priority 2022, published 2026).
# Starred links: 1 amine or outer side, 2 acyl side, 3 side chain; linkers in the order of their positions; H or OH if unused. Positions of bridges follow the written chain, without caps; N, C: chain ends. Non-standard residues stand in square brackets, D forms with d. Residues, ends and D or L forms follow the SMILES beside them. Chains are numbered I, II in the order given. *: point of attachment. isoGln = NC(=O)[C@H](CCC(=O)[*:2])N[*:1]; εLys = N[C@@H](CCCCN[*:1])C(=O)[*:2]; Dab = NCC[C@H](N)C(=O)O; PhAc = O=C(Cc1ccccc1)*
# What was measured:
# [1] = Preceding clinical study, Cmax; type: in vivo, human; conditions: 0.3 mg
# Protocol: The originally planned escalating doses were 0.1, 0.3, 1, 3, 6, and 10 mg, respectively. […] The doses and/or infusion rates could be adjusted based on recommendations from the SRC.
# [2] = tested on: CCl4-induced rat model of cirrhosis and ascites; test: CCl4-induced cirrhosis and ascites rats, cohort 3 (single IV bolus), hemodynamics and serum aldosterone; type: in vivo; conditions: 100 μg/kg IV
# Protocol: Animals: 90 male Wistar rats (Charles River Laboratories, Espana S.A) weighing 200-220 grams at the time of receipt were subjected to a cirrhosis induction program; high dose CCl4 was administered by inhalation twice weekly (Monday and Friday) and phenobarbital (0.3 g/L) was added to drinking water. In some instances, liver damage in this model is caused by hepatotoxic CCl4 metabolites produced in the liver. In some instances, phenobarbital induction of the microsomal enzyme oxidizing system exaggerates the intensity of the hepatic necrosis. […] Animals were allowed free access to food and water throughout the study.
# The study consisted of 3 treatment cohorts, as detailed in Table 10. Animals developing and maintaining ascites for 2 weeks were randomly assigned to treatment groups. Ringer Braun saline solution was used as vehicle. IV bolus were administered via femoral veins.
# Cohort 3: Animals were anesthetized and the left femoral artery and vein catheterized. The femoral artery catheter was connected to a transducer for mean arterial pressure (MAP) measurements. The right jugular vein was isolated and a catheter placed in the right atrium; a thermocouple was advanced through the aortic arch via left carotid approach to monitor the intraarterial temperature and cardiac output (CO). MAP and CO were measured and recorded in a multichannel system (Powerlab). CO was measured by thermodilution following the administration of a 200 μL/animal bolus of Ringer solution (20-23° C.) into the right atrium using a spring-loaded Hamilton syringe. A midline abdominal incision (2 cm) was created and the portal vein cannulated through the ileocolic vein to measure portal pressure (PP). Constant infusion (2 mL/hr) of Ringer solution was given through the femoral vein. After 30 minutes of infusion, baseline 30 minute values for PP, MAP, CO, and systemic vascular resistance (SVR) were recorded. In the middle of the 30 minute data collection, a blood sample (0.8 mL) was obtained via the femoral artery catheter for serum aldosterone measurements. […] Five 30 minute data collections were recorded for PP, MAP, CO, and SVR over 150 minutes, with blood samples collected in the middle of each 30 minute data collection. Following blood sampling, packed cells were reconstituted with Ringer solution and reinjected over a period of 3 minutes.
# [3] = Safety and tolerability / adverse events in healthy subjects; type: in vivo, human
# Description: The terms “adverse event” or “AE” as used herein, refer to an untoward medical occurrence in an individual, such as an individual participating in a clinical trial. In some instances, an AE is an unfavorable and/or unintended sign, symptom, or disease, such as being temporally associated with the use of an investigative medicinal product (IMP), whether or not considered to be caused by the IMP. For example, an AE can include accidental injuries, reasons for any change in medication (drug and/or dose), reasons for any medical, nursing or pharmacy consultation, or reasons for admission to hospital or surgical procedures, and overdoses and medication errors with or without clinical consequences. In some instances, AEs are anticipated based on the pharmacological effect of the IMP. In some instances, an AE is a laboratory abnormality, vital sign or finding from physical or gynecological examination assessed as clinically significant by the investigator. In some instances, a pre-treatment adverse event is any untoward medical occurrence arising or observed between signing of informed consent and the first administration of the IMP. In some instances, a treatment emergent adverse event is an AE occurring after the administration of the IMP and within the time of residual drug effect, or a pre-treatment adverse event or pre-existing medical condition that worsens in intensity after administration of the IMP and within the time of residual drug effect.
# Injection site reactions were assessed by the Investigator in treatment Period 2 only, immediately after, 0.5, 4, and 24 hours after subcutaneous administration of the study drug on Days 1 to 5. The injection site reactions to be assessed were erythema, pain, pruritus, oedema, bruising, and pallor, each to be assessed as none, mild, moderate, or severe. Injection site reactions other than those described above or persisting longer than 24 hours were classified as adverse events (AEs).
# Blood samples for hematology and hemostasis parameters were collected on Day −1, and at 2, and 4 hours after the administration on Day 1, pre-dose, and 3 hours after the administration on Days 2-4, pre-dose, and at 2, and 6 hours after the administration on Day 5 and at follow-up. The actual sampling times were recorded.
# Urinalysis was performed locally by means of a dip-stick test. […] In case any result of the dipstick was abnormal and clinically significant, a new urine test was to be performed. If the abnormal result was confirmed, further examination could be initiated at the discretion of the Investigator. Clinically significant abnormal findings were reported as AEs. The metabolite pattern of Compound 1 in plasma and urine were measured.
# [4] = M1 formation, single dose subcutaneous infusion in rats; type: in vivo, rat; conditions: s.c. infusion
# Description: The incision for the mini-pump was on the cranial right side of the spine, a trocar or hemostats may be inserted to create a subcutaneous pocket, and the pump inserted into the subcutaneous pocket with the delivery port of the mini-pump pointing cranially. The doses were given into mid-dorsal area via surgical implantation of the pump filled with test article. Following insertion of the implant, a 4 cm×4 cm area surrounding the pump will be delineated and designated as the test site. The test site will be delineated and remarked as necessary thereafter.
# Blood samples were collected from each rat at various timepoints, including 0.25 hour (hr), 1 hr, 3 hr, 7 hr, 24 hr, 25 hr, 27 hr, and 29 hr.
# [5] = i.v., Period 1, active treatment
# [6] = s.c., Period 2, active treatment
compound,measurement,setting,value
"CC[C@H](C)[C@@H]1NC(=O)[C@H](Cc2ccccc2)NC(=O)[C@@H](N)CSSC[C@@H](C(=O)N2CCC[C@H]2C(=O)N[C@@H](CCNC(=O)[C@@H](N)CCCCNC(=O)[C@H](CCCCNC(C)=O)NC(=O)CC[C@H](NC(=O)[C@H](CCCNC(=N)N)NC(=O)[C@@H]2CCCN2C(=O)[C@H](C)NC(=O)[C@H](CC(N)=O)NC(=O)[C@H](CCC(N)=O)NC(=O)[C@H](Cc2ccccc2)NC(=O)[C@@H](Cc2ccc(OC)cc2)NC(=O)Cc2ccccc2)C(N)=O)C(=O)NCC(N)=O)NC(=O)[C@H](CC(N)=O)NC(=O)[C@H](CCC(N)=O)NC1=O [Compound 1, Glycinamide, L-cysteinyl-L-phenylalanyl-L-isoleucyl-L-glutaminyl-L-asparaginyl-L-cysteinyl-L-prolyl-N4-(phenylacetyl-O-methyl-D-tyrosyl-L-phenylalanyl-L-glutaminyl-L-asparaginyl-L-alanyl-L-prolyl-L-arginyl-L-isoglutamyl-N5-acetyl-L-lysyl-L-ε-lysyl)-L-2,4-diaminobutyryl-, cyclic (1→6)-disulfide] (I: H-CFIQNCP[Dab]G-NH2 / II: PhAc-[dY](Me)FQNAPR[isoGln]K(Ac)[εLys]; disulfide I:1-I:6; amide I:8-II:C)",Cmax,[1]; 6 hour i.v. infusion,up to 6 ng/mL
same,Cmax,[1]; s.c. injection,up to 2.5 ng/mL
same,Cardiac output - portal pressure,[2]; 0 min,173 mL/min
same,Mean Arterial Pressure,[2]; 0 min,79 mmHg
same,Systemic Vascular Resistance,[2]; 0 min,0.49 mmHg * min/mL
same,Cardiac output - portal pressure,[2]; 30 min,178 mL/min
same,Mean Arterial Pressure,[2]; 30 min,84 mmHg
same,Portal Pressure,[2]; 30 min,13.9 mmHg
same,Systemic Vascular Resistance,[2]; 30 min,0.54 mmHg * min/mL
same,Cardiac output - portal pressure,[2]; 60 min,177 mL/min
same,Mean Arterial Pressure,[2]; 60 min,91 mmHg
same,Portal Pressure,[2]; 60 min,12.8 mmHg
same,Systemic Vascular Resistance,[2]; 60 min,0.54 mmHg * min/mL
same,Cardiac output - portal pressure,[2]; 90 min,158 mL/min
same,Mean Arterial Pressure,[2]; 90 min,98 mmHg
same,Portal Pressure,[2]; 90 min,11.5 mmHg
same,Systemic Vascular Resistance,[2]; 90 min,0.71 mmHg * min/mL
same,Cardiac output - portal pressure,[2]; 120 min,140 mL/min
same,Mean Arterial Pressure,[2]; 120 min,93 mmHg
same,Portal Pressure,[2]; 120 min,10.6 mmHg
same,Systemic Vascular Resistance,[2]; 120 min,0.72 mmHg * min/mL
same,Cardiac output - portal pressure,[2]; 150 min,139 mL/min
same,Mean Arterial Pressure,[2]; 150 min,92 mmHg
same,Portal Pressure,[2]; 150 min,9.7 mmHg
same,Systemic Vascular Resistance,[2]; 150 min,0.74 mmHg * min/mL
same,reduction in serum aldosterone,[2]; end of study,greater than 50%
same,Serum Aldosterone,[2]; end of study (vehicle 786),264 ng/dL
same,severe AEs,[3]; i.v. 0.1 mg (bradycardia),One
same,TEAEs regarded as ADRs,"[3]; i.v., 34 subjects on active treatment",87
same,serious AEs,"[3]; i.v., Period 1",No serious AEs occurred
same,number of TEAEs,[3]; [5],94
same,subjects with TEAEs,[3]; [5],35 of the 48
same,maximum tolerated s.c. dose (MTD),[3]; s.c.,about 0.1 mg
same,severe AEs,[3]; s.c. 0.1 mg (abdominal pain),3
same,subjects with moderate oedema and mild pain at injection site,"[3]; s.c. 0.1 mg, 30 min",1 subject
same,severe AEs,"[3]; s.c. 0.3 mg (abdominal pain, back pain), 1 subject",2
same,serious AEs leading to discontinuation,[3]; s.c. 0.3 mg (elevated troponin I),1
same,injection site reactions,[3]; s.c. (bolus) injection,"Erythema, pallor, and pruritus of mild severity"
same,TEAEs regarded as ADRs,"[3]; s.c., 9 subjects on active treatment",87
same,AE leading to death,"[3]; s.c., Period 2",No AE led to death
same,number of TEAEs,[3]; [6],87
same,subjects with TEAEs,[3]; [6],9 subjects
same,tolerability,"[3]; single i.v. infusion, about 0.9 mg or less",safe and well tolerated
same,metabolised,"[4]; rat, plasma, sc, 4.8 mg/kg, rats",< 20%
same,adverse events,[4]; rats and mini-pigs,No relevant adverse events were reported
